The compounds below were run against T1, Cdk2(2-298) (Homo sapiens, UniProt P24941) (assay: Surface Plasmon Resonance (SPR), Biacore 8K, compound interaction with immobilized kinase). Settings: biotinylated N-terminal avi-tagged protein on Chip SA, single-cycle kinetics (SCK, "S") mode, 1% DMSO, pH 7.5, read-out: Activity rating* (KD).
T1 construct: Biotinylated N-terminal avi-tagged Cdk2(2-298) or Cdk1(1-297) was immobilized
Type: binding
Experimental: Surface Plasmon Resonance (SPR) Method Description
Compound interaction was profiled using a Biacore 8K instrument (Cytiva). Biotinylated N-terminal avi-tagged Cdk2(2-298) or Cdk1(1-297) was immobilized on a series S sensor Chip SA at a capture level between 2500 RU and 3000 RU (Cdk2) or 7000 RU (Cdk1) in buffer (25 mM HEPES, 150 mM NaCl, 0.05% Tween20, pH 7.5). A compound dilution plate (8 concentrations, 3-fold dilution) in DMSO was prepared (100× assay concentration). From this plate, compound DMSO stock solution was transferred into buffer, yielding a final DMSO concentration of 1% in assay. The remaining buffer was supplemented with 1% DMSO. Compounds were injected in a series of increasing concentrations in multi-cycle kinetics (MCK, “M”) or single-cycle kinetics (SCK, “S”) mode at a flow rate of 30 μl/min for 120 sec and dissociation was profiled for 180 sec (MCK) or 1800 sec (SCK). Data were analysed using Biacore Insight Evaluation Software (Cytiva).
Compound O=S(=O)(Nc1ccc(Oc2nccnc2-c2ccnc(N[C@H]3CCCNC3)n2)c(F)c1)c1ccccc1Cl [Compound 390, N-[3-Fluoro-4-[[3-[2-[[(3S)-3-piperidinyl]amino]pyrimidin-4-yl]-2-pyrazinyl]oxy]phenyl]2-chlorobenzenesulfonamide] has a Kd of 11 to 100 nM. Work on O=S(=O)(Nc1ccc(Oc2ncsc2-c2ccnc(N[C@H]3CCCNC3)n2)c(F)c1)c1ccccc1Cl [Compound 391, N-[3-Fluoro-4-[[5-[2-[[(3S)-3-piperidinyl]amino]pyrimidin-4-yl]-4-thiazolyl]oxy]phenyl]2-chlorobenzenesulfonamide] yielded a Kd of no more than 10 nM. N[C@H]1CC[C@H](Nc2nccc(-c3nccnc3Oc3ccc(NS(=O)(=O)c4ccccc4Cl)cc3F)n2)CC1 [Compound 402, N-[4-[(1r,4r)[3-[2-[(4-Aminocyclohexyl)amino]pyrimidin-4-yl]pyrazin-2-yl]oxy]-3-fluorophenyl]2-chlorobenzenesulfonamide] was tested, and the Kd was 100 to 1000 nM. N[C@H]1CC[C@H](Nc2nccc(-c3scnc3Oc3ccc(NS(=O)(=O)c4ccccc4Cl)cc3F)n2)CC1 [Compound 403, N-[4-[(1r,4r)[5-[2-[(4-Aminocyclohexyl)amino]pyrimidin-4-yl]thiazol-4-yl]oxy]-3-fluorophenyl]2-chlorobenzenesulfonamide] was tested, and the Kd was no more than 10 nM. Work on N[C@H]1CC[C@H](Nc2nccc(-c3cccnc3Oc3ccc(NS(=O)(=O)c4ccccc4Cl)cc3F)n2)CC1 [Compound 410, N-[4-[(1r,4r)[3-[2-[(4-Aminocyclohexyl)amino]pyrimidin-4-yl]pyrid-2-yl]oxy]-3-fluorophenyl]2-chlorobenzenesulfonamide] yielded a Kd of no more than 10 nM. N[C@H]1CC[C@H](Nc2nccc(-c3cccnc3Oc3ccc(NS(=O)(=O)c4ccccc4Cl)cc3)n2)CC1 [Compound 411, N-[4-[(1r,4r)[3-[2-[(4-Aminocyclohexyl)amino]pyrimidin-4-yl]-2-pyridyl]oxy]phenyl]2-chlorobenzenesulfonamide] gave a Kd of 11 to 100 nM. Work on O=S(=O)(Nc1ccc(Oc2ncccc2-c2ccnc(N[C@H]3CCCNC3)n2)cc1)c1ccccc1Cl [Compound 412, N—((S)-4-((3-(2-(Piperidin-3-ylamino)pyrimidin-4-yl)pyridin-2-yl)oxy)phenyl) 2-chlorobenzenesulfonamide] yielded a Kd of 11 to 100 nM. Compound O=S(=O)(Nc1ccc(Oc2ncccc2-c2ccnc(N[C@H]3CCCNC3)n2)c(F)c1)c1ccccc1Cl [Compound 413, N—((S)-4-((3-(2-(piperidin-3-ylamino)pyrimidin-4-yl)pyridin-2-yl)oxy)-3-fluorophenyl) 2-chlorobenzenesulfonamide] has a Kd of no more than 10 nM. N[C@H]1CC[C@H](Nc2nccc(-c3cccnc3Oc3cc(Cl)c(NS(=O)(=O)c4ccccc4Cl)cc3F)n2)CC1 [Compound 414, N-[4-[(1r,4r)[3-[2-[(4-Aminocyclohexyl)amino]pyrimidin-4-yl]pyrid-2-yl]oxy]-6-chloro-3-fluorophenyl]2-chlorobenzenesulfonamide] showed a Kd of no more than 10 nM. With N[C@H]1CC[C@H](Nc2nccc(-c3cccnc3Oc3ccc(NS(=O)(=O)c4cccc5ccccc45)cc3F)n2)CC1 [Compound 415, N-[4-[(1r,4r)[3-[2-[(4-Aminocyclohexyl)amino]pyrimidin-4-yl]pyrid-2-yl]oxy]-3-fluorophenyl]naphthalene-1-sulfonamide] the Kd was 11 to 100 nM. N[C@H]1CC[C@H](Nc2nccc(-c3cccnc3Oc3cc(Cl)c(NS(=O)(=O)c4cccc5ccccc45)cc3F)n2)CC1 [Compound 416, N-[4-[(1r,4r)[3-[2-[(4-Aminocyclohexyl)amino]pyrimidin-4-yl]pyrid-2-yl]oxy]-6-chloro-3-fluorophenyl]naphthalene-1-sulfonamide] showed a Kd of 11 to 100 nM. N[C@H]1CC[C@H](Nc2nccc(-c3cccnc3Oc3ccc(NS(=O)(=O)c4ccc5ccccc5c4)cc3F)n2)CC1 [Compound 417, N-[4-[(1r,4r)[3-[2-[(4-Aminocyclohexyl)amino]pyrimidin-4-yl]pyrid-2-yl]oxy]-3-fluorophenyl]naphthalene-2-sulfonamide] was tested, and the Kd was 100 to 1000 nM.

— US20260272925A1, “CDK2 MODULATORS, COMPOSITIONS, AND METHODS OF USE THEREOF” (Type6 Therapeutics, Inc., priority 2023, published 2026)
